The source of these data is patent US8518956B2, “1-(1-(2-ethoxyethyl)-3-ethyl-7-(4-methylpyridin-2-ylamino)-1H-pyrazolo[4,3-d]pyrimidin-5-yl) piperidine-4-carboxylic acid and salts thereof” (priority 2005, dated 2013).

The experiment has as its target T1, PDE5 enzyme (Homo sapiens, UniProt O76074).
T1 construct: The PDE5 enzyme isolated from human platelets; from tissue; host or cells: human platelets
The experiment in a line: Method 1: Human Platelet PDE5 Enzyme Inhibition Scintillation Proximity Assay. Particulars: METHOD 1: PDE5 IC50, Table B, WO2004096810 examples. In kind it is biochemical. From the text:
Method 1: Human Platelet PDE5 Enzyme Inhibition Scintillation Proximity Assay
An in vitro assay can be used to evaluate the inhibition of PDE5 enzyme activity by a test compound.
The PDE5 enzyme for use in the assay can be obtained from human platelets by appropriate modification of the method of Thompson, W J et al.; Biochemistry 18(23), 5228-5237, 1979, as described by Ballard S A et al.; J. Urology 159(6), 2164-2171, 1998. The PDE5 enzyme isolated from human platelets can be used to catalyze the hydrolysis of [^3H]cGMP (Amersham Biosciences) to 5′ nucleotide [^3H]GMP. The [^3H]GMP binds to yttrium silicate SPA beads (Amersham Biosciences) and is detected by scintillation counting. More specifically, the effect of the test compound at different concentrations can be evaluated in the assay by contacting the compound with a fixed amount of PDE5 enzyme in the presence of substrate (cGMP or cAMP in a 3:1 ratio unlabelled to [^3H]-labeled). Scintillation counting can be used as described above to determine relative PDE5 enzyme activity. The inhibition of PDE5 enzyme activity is then calculated relative to total PDE5 enzyme activity of uninhibited controls.
PDE5 IC50 Assay: 96-well microtiter plate format
• Buffer A: 20 mM Tris-HCl, 5 mM MgCl2, pH 7.4 • Buffer B: 2 mg/ml BSA in Buffer A (enzyme buffer) • cGMP substrate: Final concentration of 500 nM in assay The amount of ^3H-labeled substrate added depends upon the specific activity of [^3H]cGMP, and the cGMP substrate is diluted with a 10 mM stock of cold cGMP in Buffer A for a final substrate concentration of 500 nM in the assay. • PDE enzyme: Prepared in Buffer B. The dilution factor is determined by enzyme activity. • SPA beads: 20 mg/ml suspension prepared in dH2O.
Stocks of standard and test compounds are prepared at 5 mM in 100% DMSO. The compound is serially diluted in a dilution plate using a 10-point ½ log dilution format. 2 μl of the compound dilution is added in duplicate to the wells of the assay plate. 2 μl of 100% DMSO are added to designated control wells. 25 μl of Buffer A are added to all wells. 25 μl of Buffer B are added to the negative control wells. 25 μl of enzyme are added to the remaining wells. 50 μl of substrate are added to each well. Plates are sealed and incubated for 60 minutes on a plate shaker at 30 C. 50 plof SPA beads are added to stop the reaction. The plates are again sealed and shaken for 15 minutes to allow the beads to bind the GMP product. The beads are allowed to settle for 30 minutes and then read on a NXT TopCount scintillation counter. Data are analyzed with a curve fitting application for plate-based screening. Percent inhibition in this assay is calculated as follows: Inhibition (%)=[(mean maximum−compound value/(mean maximum−mean minimum)]×100.
The IC50 value is determined from sigmoid dose-response curves of enzyme activity versus compound concentration.
For orientation: In a scintillation proximity assay essentially only radioactivity close to the scintillant gives light.

Usually IC50 stands for the point on the concentration scale where inhibition reaches its midpoint. Read a low IC50 as inhibition by little substance. As for `CCCc1nn(C)c2c(N[C@H]3CC[C@H](O)CC3)nc(N3CCNCC3)nc12` [WO2004096810 Example 126], it took 2230 nM to reach half-maximal inhibition (IC50).
Next, `CCCc1nn(C)c2c(NC3CCC(OC)CC3)nc(N3CCNCC3)nc12` (stereo not shown) [WO2004096810 Example 127]: 7580 nM; `CCCc1nn(C)c2c(Nc3cccc(C(=O)NC)n3)nc(N3CCNCC3)nc12` [WO2004096810 Example 128]: 1390 nM; `CCCc1nn(C)c2c(NC3CCCC3)nc(N3CCNCC3)nc12` [WO2004096810 Example 129]: 139 nM.
In the case of `CCCc1nn(C)c2c(N(C)C3CCN(C)CC3)nc(NC)nc12` [WO2004096810 Example 130], the 50% inhibitory concentration (IC50) is above 10000 nM.
`COCCn1nc(C)c2nc(N3C[C@H](C)NC[C@H]3C)nc(Nc3cc(C)ccn3)c21` [WO2004096810 Example 133] displayed an IC50 of 4.45 nM.
For `COCCn1nc(C)c2nc(N3C[C@H](C)NC[C@H]3C)nc(Nc3ccc(C)cn3)c21` [WO2004096810 Example 134], the half-inhibitory concentration (IC50) amounted to 6.57 nM.
Consider `COCCn1nc(C)c2nc(N3C[C@H](C)NC[C@H]3C)nc(Nc3ccncn3)c21` [WO2004096810 Example 135], for which the IC50 was 0.92 nM.
As for `CCOCCn1nc(C)c2nc(N3C[C@H](C)NC[C@H]3C)nc(Nc3cc(C)ccn3)c21` [WO2004096810 Example 136], half-maximal inhibition (IC50) required 1.09 nM.
`CCOCCn1nc(C)c2nc(N3C[C@H](C)NC[C@H]3C)nc(Nc3ccc(C)cn3)c21` [WO2004096810 Example 137] gave a half-inhibitory concentration (IC50) of 1.43 nM.
`CCOCCn1nc(C)c2nc(N3C[C@H](C)NC[C@H]3C)nc(Nc3ccncn3)c21` [WO2004096810 Example 138]: it took 0.33 nM to reach half-maximal inhibition (IC50).
`CCOCCn1nc(CC)c2nc(N3C[C@H](C)NC[C@H]3C)nc(Nc3cc(C)ccn3)c21` [WO2004096810 Example 139] showed a half-maximal inhibitory concentration (IC50) of 0.55 nM.
Next, `CCOCCn1nc(CC)c2nc(N3C[C@H](C)NC[C@H]3C)nc(Nc3ccc(C)cn3)c21` [WO2004096810 Example 140]: 1.95 nM; `CCOCCn1nc(CC)c2nc(N3C[C@H](C)NC[C@H]3C)nc(Nc3ccncn3)c21` [WO2004096810 Example 141]: 0.15 nM; `COCCn1nc(C)c2nc(N3C[C@@H](C)NC[C@@H]3C)nc(Nc3cc(C)ccn3)c21` [WO2004096810 Example 142]: 22.7 nM.
`COCCn1nc(C)c2nc(N3C[C@@H](C)NC[C@@H]3C)nc(Nc3ccc(C)cn3)c21` [WO2004096810 Example 143] displayed an IC50 of 81.2 nM.
Turning to `COCCn1nc(C)c2nc(N3C[C@@H](C)NC[C@@H]3C)nc(Nc3ccncn3)c21` [WO2004096810 Example 144], the IC50 stood at 5.34 nM.
Molecule `CCOCCn1nc(C)c2nc(N3C[C@@H](C)NC[C@@H]3C)nc(Nc3cc(C)ccn3)c21` [WO2004096810 Example 145] gave a half-maximal inhibitory concentration (IC50) of 7.15 nM.
`CCOCCn1nc(C)c2nc(N3C[C@@H](C)NC[C@@H]3C)nc(Nc3ccc(C)cn3)c21` [WO2004096810 Example 146] displayed an IC50 of 32.1 nM.
Regarding `CCOCCn1nc(C)c2nc(N3C[C@@H](C)NC[C@@H]3C)nc(Nc3ccncn3)c21` [WO2004096810 Example 147], the half-inhibitory concentration (IC50) was 2.46 nM.
`CCOCCn1nc(CC)c2nc(N3C[C@@H](C)NC[C@@H]3C)nc(Nc3cc(C)ccn3)c21` [WO2004096810 Example 148] had an IC50 of 4.39 nM.
In turn, `CCOCCn1nc(CC)c2nc(N3C[C@@H](C)NC[C@@H]3C)nc(Nc3ccc(C)cn3)c21` [WO2004096810 Example 149] yielded an IC50 of 34.8 nM.
Regarding `CCOCCn1nc(CC)c2nc(N3C[C@@H](C)NC[C@@H]3C)nc(Nc3ccncn3)c21` [WO2004096810 Example 150], the 50% inhibitory concentration (IC50) turned out to be 1.83 nM.
`CCc1nn(CCOC)c2c(Nc3ccc(C)cn3)nc(N3CCNCC3)nc12` [WO2004096810 Example 151] gave an IC50 of 22 nM.
Turning to `CCc1nn(CCOC)c2c(Nc3cc(C)ccn3)nc(N3CCNCC3)nc12` [WO2004096810 Example 152], the IC50 came to 12.1 nM.
`CCc1nn(CCOC)c2c(Nc3cc(C)ccn3)nc(NCCn3cccn3)nc12` [WO2004096810 Example 153]: half-maximal inhibition (IC50) required 19.5 nM.
Next, `CCc1nn(CCOC)c2c(Nc3cc(C)ccn3)nc(N[C@H](C)CO)nc12` [WO2004096810 Example 154]: 12.6 nM; `COCCn1nc(C)c2nc(N(C)[C@@H]3CCN(C)C3)nc(Nc3cc(C)ccn3)c21` [WO2004096810 Example 155]: 13.4 nM; `CCOCCn1nc(C)c2nc(N(C)[C@@H]3CCN(C)C3)nc(Nc3cc(C)ccn3)c21` [WO2004096810 Example 156]: 1.8 nM.
The molecule `CCOCCn1nc(C)c2nc(N(C)[C@@H]3CCN(C)C3)nc(Nc3ccncn3)c21` [WO2004096810 Example 157] displayed a half-maximal inhibitory concentration (IC50) of 16.7 nM.
Next, `CCOCCn1nc(CC)c2nc(N(C)[C@@H]3CCN(C)C3)nc(Nc3cc(C)ccn3)c21` [WO2004096810 Example 158]: 0.71 nM; `CCOCCn1nc(CC)c2nc(N(C)[C@@H]3CCN(C)C3)nc(Nc3ccc(C)cn3)c21` [WO2004096810 Example 159]: 16.3 nM; `CCOCCn1nc(CC)c2nc(N(C)[C@@H]3CCN(C)C3)nc(Nc3ccncn3)c21` [WO2004096810 Example 160]: 7.22 nM.
The molecule `CCOCCn1nc(C)c2nc(N(C)[C@H]3CCN(C)C3)nc(Nc3cc(C)ccn3)c21` [WO2004096810 Example 161] displayed a half-inhibitory concentration (IC50) of 0.5 nM.
The molecule `CCOCCn1nc(CC)c2nc(N(C)[C@H]3CCN(C)C3)nc(Nc3cc(C)ccn3)c21` [WO2004096810 Example 162] gave an IC50 of 0.24 nM.
Consider `COCCn1nc(C)c2nc(N3CCNCC3)nc(Nc3cc(C)ccn3)c21` [WO2004096810 Example 165], for which the IC50 came out at 10.5 nM.
Next, `Cc1ccnc(Nc2nc(N3CCNCC3)nc3c(C)nn(CC4CCCO4)c23)c1` (stereo not shown) [WO2004096810 Example 166]: 11.5 nM; `Cc1ccnc(Nc2nc(N3CCNCC3)nc3c(C)nn(Cc4ccccn4)c23)c1` [WO2004096810 Example 167]: 2.95 nM.
In turn, `Cc1ccnc(Nc2nc(N3CCNCC3)nc3c(C)nn(CC4CCCCO4)c23)c1` (stereo not shown) [WO2004096810 Example 168] displayed an IC50 of 0.81 nM.
`Cc1ccnc(Nc2nc(N3CCNCC3)nc3c(C)nn(CC(F)(F)F)c23)c1` [WO2004096810 Example 170] returned an IC50 of 2100 nM.
`Cc1ccnc(Nc2nc(N3CCNCC3)nc3c(C)n(CC4CC4)nc23)c1` [WO2004096810 Example 173] showed a half-maximal inhibitory concentration (IC50) of 396 nM.
Take `Cc1ccnc(Nc2nc(N3CCNCC3)nc3c(C)n(CCC(C)C)nc23)c1` [WO2004096810 Example 174]: the IC50 amounted to 432 nM.
`Cc1ccnc(Nc2nc(N3CCNCC3)nc3c(C)n(Cc4ccccn4)nc23)c1` [WO2004096810 Example 176]: 274 nM corresponded to half-maximal inhibition (IC50).
Next, `Cc1ccnc(Nc2nc(N3CCNCC3)nc3c(C)n(CC4CCC4)nc23)c1` [WO2004096810 Example 177]: 535 nM; `COCCn1nc(C(C)C)c2nc(N3CCNCC3)nc(Nc3ccc(C)cn3)c21` [WO2004096810 Example 179]: 18.3 nM; `CCc1nn(CCOC)c2c(Nc3cc(C)n[nH]3)nc(N3CCNCC3)nc12` [WO2004096810 Example 180]: 341 nM.
With `CCOCCn1nc(CO)c2nc(N(C)CC)nc(Nc3cc(C)ccn3)c21` [WO2004096810 Example 181], the concentration for half-maximal inhibition (IC50) came out at 0.39 nM.
The molecule `CCOCCn1nc(CO)c2nc(N(C)C)nc(Nc3cc(C)ccn3)c21` [WO2004096810 Example 182] returned an IC50 of 4.03 nM.
As for `CCOCCn1nc(COC)c2nc(N(C)C)nc(Nc3cc(C)ccn3)c21` [WO2004096810 Example 185], the IC50 amounted to 1.3 nM.
Molecule `CCOCCn1nc(COCC)c2nc(N(C)C)nc(Nc3cc(C)ccn3)c21` [WO2004096810 Example 188] gave an IC50 of 0.47 nM.
In turn, `CCOCCn1nc(C)c2nc(N(C)[C@H]3CCN(C)C3)nc(Nc3ccncn3)c21` [WO2004096810 Example 191] registered an IC50 of 0.24 nM.
Molecule `CCOCCn1nc(CC)c2nc(N(C)[C@H]3CCN(C)C3)nc(Nc3ccc(C)cn3)c21` [WO2004096810 Example 192] showed an IC50 of 3.06 nM.
